Data on 14 molecules can be found in patent publication US20250122183A1 (Pfizer Inc., priority 2023, published 2025).

By Ki is commonly meant a measure of affinity in units of concentration, obtained from inhibition or displacement.

What all share (assay type): biochemical
The target in assay [1] is KAT7+BRPF1+EAF6+ING5 4 protein complex (Homo sapiens (Human), UniProt O95251). Kind of assay: KAT7 BRPF1 assay (SAMDI-MS acetylation of H3 1-21 peptide). The conditions noted are these: Morrison equation fit; replicate number in parentheses.
Another assay has as its target KAT6A Full length enzyme (Homo sapiens (Human), UniProt Q92794). Kind of assay: KAT6A assay (SAMDI-MS acetylation of H3 1-21 peptide). The settings on record: Morrison equation fit; replicate number in parentheses; read-out: KAT6A Ki (nM) (replicate number).
The next assay has as its target KAT8 Full length enzyme (Homo sapiens (Human), UniProt Q9H7Z6). Description: KAT8 assay (SAMDI-MS acetylation of H3 1-21 peptide). The conditions noted are these: Morrison equation fit; replicate number in parentheses; read-out: KAT8 Ki (nM) (replicate number).
The target in another assay is KAT5 Full length enzyme (Homo sapiens (Human), UniProt Q92993). Kind of assay: KAT5 assay (SAMDI-MS acetylation of H4 1-21 peptide). The conditions noted are these: Morrison equation fit; replicate number in parentheses; read-out: KAT5 Ki (nM) (replicate number).
Assay [2] addresses KAT7+JADE1+EAF6+ING5 4 protein complex (Homo sapiens (Human), UniProt O95251). Description: KAT7 JADE1 assay (SAMDI-MS acetylation of H3 1-21 peptide). The settings on record: Morrison equation fit; replicate number in parentheses; read-out: KAT7 JADE1 Ki (nM) (replicate number).
Assay [3] addresses KAT7+BRPF2+EAF6+ING5 4 protein complex (Homo sapiens (Human), UniProt O95251). Kind of assay: KAT7 BRPF2 assay (SAMDI-MS acetylation of H3 1-21 peptide). The conditions noted are these: Morrison equation fit; replicate number in parentheses; read-out: KAT7 BRPF2 Ki (nM) (replicate number).

KAT6A Full length enzyme, sequence (Q92794 other isoform, or with tags, fused parts or gaps): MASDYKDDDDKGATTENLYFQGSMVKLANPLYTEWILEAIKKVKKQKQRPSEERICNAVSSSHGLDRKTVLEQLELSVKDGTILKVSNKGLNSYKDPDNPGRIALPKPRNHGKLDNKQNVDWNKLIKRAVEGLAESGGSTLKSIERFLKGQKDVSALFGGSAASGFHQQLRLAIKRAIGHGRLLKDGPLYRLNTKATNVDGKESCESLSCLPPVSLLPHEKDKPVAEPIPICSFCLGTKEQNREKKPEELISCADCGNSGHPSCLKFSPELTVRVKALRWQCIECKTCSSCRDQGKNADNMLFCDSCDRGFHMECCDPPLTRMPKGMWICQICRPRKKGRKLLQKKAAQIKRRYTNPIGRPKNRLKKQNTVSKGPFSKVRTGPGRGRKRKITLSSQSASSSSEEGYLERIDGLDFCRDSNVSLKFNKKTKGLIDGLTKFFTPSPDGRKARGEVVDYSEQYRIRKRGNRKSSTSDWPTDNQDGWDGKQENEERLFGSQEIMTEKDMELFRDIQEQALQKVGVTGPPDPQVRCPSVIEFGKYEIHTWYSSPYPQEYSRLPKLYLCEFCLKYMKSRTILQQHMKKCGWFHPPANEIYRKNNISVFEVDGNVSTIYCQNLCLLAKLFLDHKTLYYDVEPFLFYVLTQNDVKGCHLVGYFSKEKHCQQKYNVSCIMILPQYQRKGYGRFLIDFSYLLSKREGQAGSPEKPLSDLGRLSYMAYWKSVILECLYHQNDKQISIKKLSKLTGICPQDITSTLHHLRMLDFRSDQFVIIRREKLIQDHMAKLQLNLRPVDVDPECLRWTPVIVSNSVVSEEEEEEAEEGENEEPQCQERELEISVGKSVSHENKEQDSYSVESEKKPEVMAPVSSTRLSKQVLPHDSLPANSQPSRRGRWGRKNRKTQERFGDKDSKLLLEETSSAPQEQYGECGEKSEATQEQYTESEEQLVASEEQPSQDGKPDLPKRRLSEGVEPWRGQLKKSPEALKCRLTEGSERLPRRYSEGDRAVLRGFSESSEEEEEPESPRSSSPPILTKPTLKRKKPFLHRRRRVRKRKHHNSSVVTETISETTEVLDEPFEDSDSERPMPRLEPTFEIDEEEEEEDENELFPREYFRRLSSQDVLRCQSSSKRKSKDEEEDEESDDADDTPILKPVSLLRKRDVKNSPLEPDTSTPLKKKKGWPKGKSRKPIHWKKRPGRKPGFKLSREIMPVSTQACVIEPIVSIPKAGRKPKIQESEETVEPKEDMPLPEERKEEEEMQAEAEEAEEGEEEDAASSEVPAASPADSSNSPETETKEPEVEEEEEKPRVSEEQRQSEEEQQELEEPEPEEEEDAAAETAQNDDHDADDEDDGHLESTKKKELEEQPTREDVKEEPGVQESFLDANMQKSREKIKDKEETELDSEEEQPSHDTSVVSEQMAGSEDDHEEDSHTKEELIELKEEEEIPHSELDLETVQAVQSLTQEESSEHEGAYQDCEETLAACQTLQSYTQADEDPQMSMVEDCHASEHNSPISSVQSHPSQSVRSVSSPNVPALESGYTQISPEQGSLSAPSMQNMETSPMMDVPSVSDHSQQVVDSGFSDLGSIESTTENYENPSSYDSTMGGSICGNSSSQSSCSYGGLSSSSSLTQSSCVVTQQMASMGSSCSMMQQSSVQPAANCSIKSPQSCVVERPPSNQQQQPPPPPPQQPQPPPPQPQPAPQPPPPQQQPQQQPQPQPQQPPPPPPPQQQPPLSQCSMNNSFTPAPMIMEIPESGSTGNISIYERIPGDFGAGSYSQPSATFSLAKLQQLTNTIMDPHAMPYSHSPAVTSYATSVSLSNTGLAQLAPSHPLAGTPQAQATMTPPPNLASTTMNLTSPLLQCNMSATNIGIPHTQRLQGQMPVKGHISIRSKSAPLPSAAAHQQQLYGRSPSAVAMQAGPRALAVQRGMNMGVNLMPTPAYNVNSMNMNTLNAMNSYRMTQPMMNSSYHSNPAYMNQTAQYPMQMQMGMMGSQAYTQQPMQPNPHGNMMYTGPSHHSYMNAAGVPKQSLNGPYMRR
KAT5 Full length enzyme, sequence (Q92993 whole entry): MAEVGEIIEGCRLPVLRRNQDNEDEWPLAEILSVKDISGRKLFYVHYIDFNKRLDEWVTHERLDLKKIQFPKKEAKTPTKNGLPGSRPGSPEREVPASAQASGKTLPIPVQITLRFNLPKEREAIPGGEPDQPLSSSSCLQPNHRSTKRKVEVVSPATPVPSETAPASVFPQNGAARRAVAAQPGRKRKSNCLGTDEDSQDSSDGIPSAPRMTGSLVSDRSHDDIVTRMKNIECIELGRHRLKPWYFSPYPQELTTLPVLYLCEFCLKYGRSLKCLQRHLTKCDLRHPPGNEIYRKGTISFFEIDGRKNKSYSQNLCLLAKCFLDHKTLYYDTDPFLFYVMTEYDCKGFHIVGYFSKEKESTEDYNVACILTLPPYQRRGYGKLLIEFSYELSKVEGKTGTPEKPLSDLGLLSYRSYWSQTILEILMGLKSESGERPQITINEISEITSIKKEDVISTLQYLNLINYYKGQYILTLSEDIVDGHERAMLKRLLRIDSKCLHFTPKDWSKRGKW
KAT8 Full length enzyme, sequence (Q9H7Z6 whole entry): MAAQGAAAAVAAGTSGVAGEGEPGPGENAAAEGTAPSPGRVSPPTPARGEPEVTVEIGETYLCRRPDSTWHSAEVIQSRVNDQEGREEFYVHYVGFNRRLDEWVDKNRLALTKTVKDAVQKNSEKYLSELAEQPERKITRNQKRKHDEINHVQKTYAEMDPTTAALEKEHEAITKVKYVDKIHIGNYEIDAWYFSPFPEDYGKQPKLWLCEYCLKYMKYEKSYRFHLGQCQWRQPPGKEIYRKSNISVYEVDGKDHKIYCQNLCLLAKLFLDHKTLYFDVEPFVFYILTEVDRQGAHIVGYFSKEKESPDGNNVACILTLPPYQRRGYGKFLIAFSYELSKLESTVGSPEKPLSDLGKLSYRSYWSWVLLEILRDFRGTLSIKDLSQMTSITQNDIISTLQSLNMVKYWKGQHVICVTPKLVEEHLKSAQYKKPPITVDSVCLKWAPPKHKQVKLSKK

As to `COc1cc2c(NS(=O)(=O)c3c(OC)cc(C4CCCN4C)cc3OC)noc2cc1Nc1cc(C2CC2)n[nH]1` (racemic) [Example 154, N-{6-[(3-cyclopropyl-1H-pyrazol-5-yl)amino]-5-methoxy-1,2-benzoxazol-3-yl}-2,6-dimethoxy-4-(1-methylpyrrolidin-2-yl)benzene-1-sulfonamide], the Ki in assay [1] was 7.8 nM; on KAT6A Full length enzyme it was 2 nM; at KAT8 Full length enzyme it was 2140 nM; on KAT5 Full length enzyme, 88.3 nM; in assay [2], 15.3 nM.

Take `COc1cc2c(NS(=O)(=O)c3c(OC)cccc3OC(C)C)noc2cc1Nc1cc[nH]n1` [Example 32, 2-methoxy-N-{5-methoxy-6-[(1H-pyrazol-3-yl)amino]-1,2-benzoxazol-3-yl}-6-[(propan-2-yl)oxy]benzene-1-sulfonamide]: the Ki in assay [1] is 89.7 nM; at KAT8 Full length enzyme, above 16300 nM; on KAT5 Full length enzyme, 2740 nM; in assay [2] it was 361 nM; in assay [3], 79.5 nM.

As to `COc1cc2c(NS(=O)(=O)c3c(OC)cccc3OC3CC3)noc2cc1Nc1cc[nH]n1` [Example 34, 2-(cyclopropyloxy)-6-methoxy-N-{5-methoxy-6-[(1H-pyrazol-3-yl)amino]-1,2-benzoxazol-3-yl}benzene-1-sulfonamide], the inhibitory constant (Ki) in assay [1] was found to be 11.2 nM; on KAT6A Full length enzyme it was 0.4 nM; on KAT8 Full length enzyme, 1240 nM; on KAT5 Full length enzyme, 365 nM; in assay [2] it was 51.8 nM.

On to `COC(=O)c1cc(Nc2cc3onc(NS(=O)(=O)c4c(OC)cccc4OC)c3cc2OC)[nH]n1` [Example 55, methyl 5-({3-[(2,6-dimethoxybenzene-1-sulfonyl)amino]-5-methoxy-1,2-benzoxazol-6-yl}amino)-1H-pyrazole-3-carboxylate], for which the Ki in assay [1] came to 199 nM; at KAT6A Full length enzyme, 2.4 nM; in assay [2], 663 nM; in assay [3], 147 nM.

Turning to `COc1cccc(OC)c1S(=O)(=O)Nc1noc2cc(Nc3cc(C4CC4)n[nH]3)c(F)c(OC)c12` [Example 71, N-{6-[(3-cyclopropyl-1H-pyrazol-5-yl)amino]-5-fluoro-4-methoxy-1,2-benzoxazol-3-yl}-2,6-dimethoxybenzene-1-sulfonamide], the Ki in assay [1] is 2.2 nM; on KAT6A Full length enzyme it was 2.6 nM; on KAT8 Full length enzyme, 4050 nM; on KAT5 Full length enzyme it was 591 nM; in assay [2] it was 20.9 nM.

As to `CCc1cc(Nc2cc3onc(NS(=O)(=O)c4c(OC)cccc4OC)c3c(OC)c2F)[nH]n1` [Example 72, N-{6-[(3-ethyl-1H-pyrazol-5-yl)amino]-5-fluoro-4-methoxy-1,2-benzoxazol-3-yl}-2,6-dimethoxybenzene-1-sulfonamide], the inhibition constant (Ki) in assay [1] was 1.1 nM; on KAT6A Full length enzyme, 4.6 nM; on KAT8 Full length enzyme, above 6970 nM; on KAT5 Full length enzyme, 1010 nM; in assay [2], 21.5 nM.

Turning to `COc1cc2c(NS(=O)(=O)c3c(OC)cccc3OC)noc2cc1Nc1cc(Cc2ccccc2)n[nH]1` [Example 109, N-{6-[(3-benzyl-1H-pyrazol-5-yl)amino]-5-methoxy-1,2-benzoxazol-3-yl}-2,6-dimethoxybenzene-1-sulfonamide], the Ki in assay [1] amounted to 5 nM; on KAT6A Full length enzyme it was 0.8 nM; on KAT8 Full length enzyme, 2930 nM; at KAT5 Full length enzyme, 326 nM; in assay [2] it was 18.5 nM.

Regarding `COc1cc2c(NS(=O)(=O)c3c(OC)cccc3OC)noc2cc1Nc1cc(CC(C)C)n[nH]1` [Example 114, 2,6-dimethoxy-N-(5-methoxy-6-{[3-(2-methylpropyl)-1H-pyrazol-5-yl]amino}-1,2-benzoxazol-3-yl)benzene-1-sulfonamide], the Ki in assay [1] is 2.1 nM; on KAT6A Full length enzyme, 1.3 nM; on KAT8 Full length enzyme it was 3360 nM; on KAT5 Full length enzyme it was 312 nM; in assay [2] it was 22 nM.

Turning to `COc1cc2c(NS(=O)(=O)c3c(OC)cc(-c4cscn4)cc3OC)noc2cc1Nc1cc(C2CC2)n[nH]1` [Example 121, N-{6-[(3-cyclopropyl-1H-pyrazol-5-yl)amino]-5-methoxy-1,2-benzoxazol-3-yl}-2,6-dimethoxy-4-(1,3-thiazol-4-yl)benzene-1-sulfonamide], the inhibitory constant (Ki) worked out at 2.1 nM in assay [1]; 0.7 nM on KAT6A Full length enzyme; 1120 nM on KAT8 Full length enzyme; 106 nM at KAT5 Full length enzyme; 8.9 nM in assay [2].

Consider `COc1cc2c(NS(=O)(=O)c3c(OC)cc(-c4ccn(C)n4)cc3OC)noc2cc1Nc1cc(C2CC2)n[nH]1` [Example 122, N-{6-[(3-cyclopropyl-1H-pyrazol-5-yl)amino]-5-methoxy-1,2-benzoxazol-3-yl}-2,6-dimethoxy-4-(1-methyl-1H-pyrazol-3-yl)benzene-1-sulfonamide], for which the Ki was found to be 1.2 nM in assay [1]; 0.3 nM at KAT6A Full length enzyme; 395 nM on KAT8 Full length enzyme; 45.3 nM at KAT5 Full length enzyme; 3 nM in assay [2].

Turning to `COc1cc2c(NS(=O)(=O)c3c(OC)cc(CN4CC[C@@H](F)C4)cc3OC)noc2cc1Nc1cc(C2CC2)n[nH]1` [Example 201, N-{6-[(3-cyclopropyl-1H-pyrazol-5-yl)amino]-5-methoxy-1,2-benzoxazol-3-yl}-4-{[(3R)-3-fluoropyrrolidin-1-yl]methyl}-2,6-dimethoxybenzene-1-sulfonamide], the inhibitory constant (Ki) in assay [1] worked out at 3.4 nM; on KAT6A Full length enzyme it was 0.6 nM; at KAT8 Full length enzyme, 2190 nM; at KAT5 Full length enzyme it was 192 nM; in assay [2] it was 4.1 nM.

Regarding `COc1cc2c(NS(=O)(=O)c3c(OC)cc(CN4CC(F)(F)C4)cc3OC)noc2cc1Nc1cc(C2CC2)n[nH]1` [Example 203, N-{6-[(3-cyclopropyl-1H-pyrazol-5-yl)amino]-5-methoxy-1,2-benzoxazol-3-yl}-4-[(3,3-difluoroazetidin-1-yl)methyl]-2,6-dimethoxybenzene-1-sulfonamide], the Ki in assay [1] turned out to be 3 nM; on KAT6A Full length enzyme it was 0.4 nM; at KAT8 Full length enzyme, 1220 nM; at KAT5 Full length enzyme it was 21.7 nM; in assay [2], 4.3 nM.

For the molecule `COc1cc2c(NS(=O)(=O)c3c(OC)cc(-c4nccc(CN(C)C)n4)cc3OC)noc2cc1Nc1cc(C2CC2)n[nH]1` [Example 222, N-{6-[(3-cyclopropyl-1 H-pyrazol-5-yl)amino]-5-methoxy-1,2-benzoxazol-3-yl}-4-{4-[(dimethylamino)methyl]pyrimidin-2-yl}-2,6-dimethoxybenzene-1-sulfonamide], the Ki in assay [1] turned out to be 4 nM; on KAT6A Full length enzyme it was 0.5 nM; on KAT8 Full length enzyme, 958 nM; at KAT5 Full length enzyme, 27.9 nM; in assay [2], 4.5 nM.

On to `COc1cc2c(NS(=O)(=O)c3c(OC)cc(-c4ncc(N5CCN(C)CC5)cn4)cc3OC)noc2cc1Nc1cc(C2CC2)n[nH]1` [Example 226, N-{6-[(3-cyclopropyl-1 H-pyrazol-5-yl)amino]-5-methoxy-1,2-benzoxazol-3-yl}-2,6-dimethoxy-4-[5-(4-methylpiperazin-1-yl)pyrimidin-2-yl]benzene-1-sulfonamide], for which the Ki in assay [1] was found to be 2.4 nM; on KAT6A Full length enzyme, 0.3 nM; at KAT8 Full length enzyme it was 572 nM; on KAT5 Full length enzyme, 11.6 nM; in assay [2], 3 nM.
